# Literature values in PubChem BioAssay AID1259409 (Chemical Carcinogenesis Research Information System (CCRIS), 2018).
# System: rodent chemically induced tumor inhibition, incidence and multiplicity
# Assay: CCRIS tumor inhibitor studies
# Conditions: Promoter: NONE USED
smiles,measurement,setting,value
C[C@]12CC[C@H](O)CC1=CC[C@@H]1[C@@H]2CC[C@]2(C)C(=O)CC[C@@H]12,"tumour outcome (control, treated, inhibition, significance)","Carcinogen: 1,2-DIMETHYLHYDRAZINE, 540-73-8, Dose [Inhibitor]: 0.6% IN DIET BEGINNING 2 WK PRIOR TO 1ST CARCINOGEN DOSE FOR DURATION OF EXPERIMENT (STUDY DURATION: 42 WK), Route [Inhibitor]: ORAL, Species: MOUSE, Strain/Sex: BALB/C/FEMALE, Target Tissue: Type of Lesion: ANUS: SQUAMOUS CELL CARCINOMA, FIBROSARCOMA, Dose [Carcinogen]: 21 MG/KG 1/WK FOR 20 WK","38%, 50%, -32%, not calculated"
same,"tumour outcome (control, treated, inhibition, significance)","Carcinogen: 1,2-DIMETHYLHYDRAZINE, 540-73-8, Dose [Inhibitor]: 0.6% IN DIET BEGINNING 2 WK PRIOR TO 1ST CARCINOGEN DOSE FOR DURATION OF EXPERIMENT (STUDY DURATION: 42 WK), Route [Inhibitor]: ORAL, Species: MOUSE, Strain/Sex: BALB/FEMALE, Target Tissue: Type of Lesion: ANUS: SQUAMOUS CELL CARCINOMA, FIBROSARCOMA, Dose [Carcinogen]: 21 MG/KG 1/WK FOR 20 WK","26/151 (17%), 0/141 (0%), 100%, p<0.001"
same,"tumour outcome (control, treated, inhibition, significance)","Carcinogen: 7,12-DIMETHYLBENZ[A]ANTHRACENE, 57-97-6, Dose [Inhibitor]: 0.6% IN DIET BEGINNING 9 D POST CARCINOGEN DOSE (STUDY DURATION: 14 WK AFTER AGENT TREATMENT), Route [Inhibitor]: ORAL, Species: MOUSE, Strain/Sex: STRAIN-A/FEMALE, Target Tissue: Type of Lesion: LUNG: TUMOR, Dose [Carcinogen]: 0.5 MG IN 0.2 ML SESAME OIL ONCE","28/28 (100%), 20/23 (87%), 13%, not calculated"
same,"tumour outcome (control, treated, inhibition, significance)","Carcinogen: 7,12-DIMETHYLBENZ[A]ANTHRACENE, 57-97-6, Dose [Inhibitor]: 100 UG IN 0.2 ML ACETONE 1 HR PRIOR TO EACH CARCINOGEN DOSE (STUDY DURATION: 290 D), Route [Inhibitor]: DERMAL, Species: MOUSE, Strain/Sex: CD-1/FEMALE, Target Tissue: Type of Lesion: SKIN: CARCINOMA, Dose [Carcinogen]: 200 NMOL AT 6-7 WK OF AGE THEN 100 NMOL 1/WK 2 WK LATER","14/28 (50%), 5/26 (19%), 62%, p<0.001"
same,"tumour outcome (control, treated, inhibition, significance)","Carcinogen: 7,12-DIMETHYLBENZ[A]ANTHRACENE, 57-97-6, Dose [Inhibitor]: 400 UG IN 0.2 ML ACETONE 1 HR PRIOR TO EACH CARCINOGEN DOSE (STUDY DURATION: 290 D), Route [Inhibitor]: DERMAL, Species: MOUSE, Strain/Sex: CD-1/FEMALE, Target Tissue: Type of Lesion: SKIN: CARCINOMA, Dose [Carcinogen]: 200 NMOL AT 6-7 WK OF AGE THEN 100 NMOL 1/WK 2 WK LATER","14/28 (50%), 3/27 (11%), 78%, p<0.001"
same,"tumour outcome (control, treated, inhibition, significance)","Carcinogen: AZOXYMETHANE, 25843-45-2, Dose [Inhibitor]: 0, 0.5% DIET BEGINNING 1 DAY AFTER LAST CARCINOGEN DOSE AND CONTINUING FOR DURATION OF STUDY (STUDY DURATION: 18 WK), Route [Inhibitor]: ORAL, Species: RAT, Strain/Sex: F344/MALE, Target Tissue: Type of Lesion: COLON: TUMOR, Dose [Carcinogen]: 10 MG/KG 1/WK FOR 10 WK","10/15 (67%), 7/15 (47%), 30%, not significant"
same,"tumour outcome (control, treated, inhibition, significance)","Carcinogen: AZOXYMETHANE, 25843-45-2, Dose [Inhibitor]: 0, 0.5% DIET BEGINNING 1 DAY AFTER LAST CARCINOGEN DOSE AND CONTINUING FOR DURATION OF STUDY (STUDY DURATION: 18 WK), Route [Inhibitor]: ORAL, Species: RAT, Strain/Sex: F344/MALE, Target Tissue: Type of Lesion: SMALL INTESTINE: TUMOR, Dose [Carcinogen]: 10 MG/KG 1/WK FOR 10 WK","10/15 (67%), 8/15 (53%), 21%, not significant"
